For orientation: Ki means the dissociation constant of the complex between target and ligand, obtained from inhibition or displacement. Low readings indicate higher affinity, high ones lower affinity. As usually defined, the inhibition is the change of the read-out against control, counted positive when it falls. As a reminder, the Papp A→B is the apparent permeability from the apical to the basolateral side of a cell layer. As a reminder, the efflux ratio is the permeability from basolateral to apical divided by that in the opposite direction, in the common usage.

Data set [1] addresses Sodium-dependent serotonin transporter (Rattus norvegicus, UniProt P31652). The experiment in a line: biochemical.
Description: Displacement of [3H]citalopram from SERT in Sprague-Dawley rat whole brain membranes after 1 hr by liquid scintillation spectrophotometric analysis
Data set [2] deals with T1, 5-hydroxytryptamine receptor 2C (Rattus norvegicus, UniProt P08909).
T1 sequence (P08909 whole entry): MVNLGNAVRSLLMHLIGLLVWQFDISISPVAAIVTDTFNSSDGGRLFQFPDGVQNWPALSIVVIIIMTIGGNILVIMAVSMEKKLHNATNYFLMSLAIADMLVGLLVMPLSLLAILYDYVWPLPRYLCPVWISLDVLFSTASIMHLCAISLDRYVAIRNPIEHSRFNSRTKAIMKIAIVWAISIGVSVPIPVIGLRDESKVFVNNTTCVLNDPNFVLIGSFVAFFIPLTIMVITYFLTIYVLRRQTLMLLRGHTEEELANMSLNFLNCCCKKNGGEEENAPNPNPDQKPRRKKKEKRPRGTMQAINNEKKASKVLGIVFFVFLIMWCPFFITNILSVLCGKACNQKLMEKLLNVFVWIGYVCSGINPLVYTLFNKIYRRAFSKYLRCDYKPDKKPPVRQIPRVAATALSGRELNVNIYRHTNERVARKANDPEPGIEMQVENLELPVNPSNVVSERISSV
The experiment in a line: biochemical.
Description: Displacement of [3H]mesulergine from 5-HT2C receptor in Sprague-Dawley rat choroid plexus membranes after 30 mins by liquid scintillation spectrophotometric analysis

Data set [3] concerns the target Sodium-dependent serotonin transporter (Rattus norvegicus) (UniProt P31652). In words: Displacement of [3H]citalopram from SERT in Sprague-Dawley rat whole brain membranes at 300 nM after 1 hr by liquid scintillation spectrophotometric analysis relative to control. The following applies: Membrane. It is filed as tissue-based. For orientation: Loss of bound radioactivity is the signal in a displacement assay; it reports binding, not function.

Data set [4] deals with T2, 5-hydroxytryptamine receptor 2C (Rattus norvegicus) (UniProt P08909).
T2 sequence (whole entry): T1 sequence (P08909 whole entry)
In words: Displacement of [3H]mesulergine from 5-HT2C receptor in Sprague-Dawley rat choroid plexus membranes at 1000 nM after 30 mins by liquid scintillation spectrophotometric analysis relative to control. The following applies: Membrane.

The nature of data set [5]: Apparent permeability from apical to basolateral side in vinblastine-treated human Caco2 cells at 3 to 50 uM. It is filed as ADME, cell-based. Particulars: Caco-2. On the technique in general: Caco-2 monolayers are a common model of the intestinal barrier.
Another data set is described as follows: in vitro. The following applies: human, Caco-2.
A further data set deals with Liver microsome. In words: Intrinsic clearance in human liver microsomes measured per gram of tissue at 2.5 uM after 20 mins. The class given is ADME. (In general: Liver microsomes are a subcellular fraction often used to study metabolism.)
The subject of the next data set is Liver. In words: Intrinsic clearance in mouse liver microsomes measured per gram of tissue at 2.5 uM after 20 mins. The class given is ADME.

Sequence of Sodium-dependent serotonin transporter (Rattus norvegicus) (P31652 whole entry): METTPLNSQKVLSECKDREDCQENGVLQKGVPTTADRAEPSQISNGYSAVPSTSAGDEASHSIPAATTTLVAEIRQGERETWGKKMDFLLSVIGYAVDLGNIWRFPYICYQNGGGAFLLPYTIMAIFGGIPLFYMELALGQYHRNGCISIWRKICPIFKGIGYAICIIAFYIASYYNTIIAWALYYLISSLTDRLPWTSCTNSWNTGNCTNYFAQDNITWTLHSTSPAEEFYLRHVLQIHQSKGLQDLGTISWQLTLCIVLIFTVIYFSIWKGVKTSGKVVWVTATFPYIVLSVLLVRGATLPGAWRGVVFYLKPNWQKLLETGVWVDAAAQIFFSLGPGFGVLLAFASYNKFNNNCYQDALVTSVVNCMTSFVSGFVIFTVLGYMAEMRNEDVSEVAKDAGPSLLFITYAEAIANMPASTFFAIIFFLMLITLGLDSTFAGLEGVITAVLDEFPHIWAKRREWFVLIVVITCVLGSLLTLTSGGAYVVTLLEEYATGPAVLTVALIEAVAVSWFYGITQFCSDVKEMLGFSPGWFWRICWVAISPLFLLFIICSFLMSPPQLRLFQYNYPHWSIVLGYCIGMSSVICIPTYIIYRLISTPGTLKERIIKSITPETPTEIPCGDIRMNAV
Sequence of Sodium-dependent serotonin transporter (P31652 whole entry): as above
Description for in vitro: Efflux ratio of apparent permeability from basolateral to apical over apical to basolateral side in vinblastine-treated human Caco2 cells at 3 to 50 uM

Turning to `COc1cc(NC(=O)Nc2ccc(OC(CCN(C)C)c3ccccc3)cc2)ccc1Cl` (centres undefined), the figures for the Ki in data set [1] and in data set [2] were 31 nM and 16.3 nM, respectively.
Take `CN(C)CCC(Oc1ccc(NC(=O)Nc2ccc3ccn(C)c3c2)cc1)c1ccccc1` (centres undefined): the Ki in data set [1] worked out at 19.3 nM; in data set [2] it was 10.9 nM.
In the case of `CN(C)CCC(Oc1ccc(NC(=O)Nc2ccc3ccccc3c2)cn1)c1ccccc1` (centres undefined), the inhibition in data set [3] amounted to 3%; in data set [4], 43%.
For the molecule `CN(C)CCC(Oc1cccc(NC(=O)Nc2ccc3ccccc3c2)c1)c1ccccc1` (centres undefined), the Ki in data set [1] is 28.2 nM; in data set [2], 87.6 nM.
On to `CN(C)CCC(Oc1ccc(NC(=O)c2ccc(Cl)c(Cl)c2)cc1)c1ccccc1` (centres undefined), for which the values for the Ki in data set [1] and in data set [2] were 65.3 nM and 57.1 nM, respectively. In addition, the Papp A→B at 50 µM in data set [5] came out at 11.3 ×10⁻⁶ cm/s. Further, the efflux ratio at 50 µM in “in vitro” worked out at 1.1. The molecule further had a CLH in the data set on Liver microsome of 0.65 mL/min.
Turning to `COc1cc(NC(=O)Nc2ccc(Cl)c(Cl)c2)ccc1OC(CCN(C)C)c1ccccc1` (centres undefined), in data set [3], the inhibition came to 38%. Besides, the Ki in data set [2] was found to be 2.8 nM.
As to `COc1ccc(NC(=O)Nc2ccc(Cl)c(Cl)c2)cc1OC(CCN(C)C)c1ccccc1` (centres undefined), in data set [3], the inhibition is -9%. The Ki in data set [2] amounted to 197 nM.
`CN(C)CCC(Oc1ccc(NC(=O)Nc2ccc3nccn3c2)cc1)c1ccccc1` (centres undefined): in data set [1], the Ki amounted to 4 nM. Further, in data set [4], the inhibition turned out to be 53%.
On to `CN(C)CCC(Oc1ccc(NC(=O)N(C)c2ccc(Cl)c(Cl)c2)cc1)c1ccccc1` (centres undefined), for which the Ki in data set [1] was determined as 89.6 nM; in data set [2], 78.9 nM. In addition, the efflux ratio at 50 µM in the data set “in vitro” amounted to 1.6.
Take `COc1ccc(NC(=O)Nc2ccc(OC(CCN(C)C)c3ccccc3)cc2)cc1C(F)(F)F` (centres undefined): the values for the Ki in data set [1] and in data set [2] were 96.4 nM and 3.3 nM, respectively.
With `CN(C)CCC(Oc1ccc(N2CCN(c3ccc(Cl)c(Cl)c3)C2=O)cc1)c1ccccc1` (centres undefined), the Ki in data set [1] was determined as 102 nM; in data set [2], 10.2 nM.
In the same order, the values of `COc1ccc(C(=O)Nc2ccc(OC(CCN(C)C)c3ccccc3)cc2)cc1Cl` (centres undefined) are 15.9 nM and 152 nM.
Taken in the same sequence, the figures for `CN(C)CCC(Oc1ccc(NC(=O)Nc2ccc(Cl)c(Cl)c2)cc1)c1ccccc1` (centres undefined) were 135 nM and 2.9 nM.
As for `CN(C)CCC(Oc1ccc(NC(=O)Nc2ccc3c(ccn3C)c2)cc1)c1ccccc1` (centres undefined), the figures for the Ki in data set [1] and in data set [2] were 9 nM and 15.9 nM, respectively. Also, the apparent permeability from apical to basolateral (Papp A→B) at 50 µM in data set [5] was found to be 5.8 ×10⁻⁶ cm/s. Moreover, the efflux ratio at 50 µM in the data set “in vitro” was 5.3.
Consider `CN(C)CCC(Oc1ccc(NC(=O)Nc2ccc3ccccc3c2)cc1)c1ccccc1` (centres undefined), for which the values for the Ki in data set [1] and in data set [2] were 62 nM and 1.7 nM, respectively. The molecule further gave a CLH with Liver of 0.03 mL/min.
In the case of `COc1ccc(C(=O)Nc2ccc(OC(CCN(C)C)c3ccccc3)cc2)cc1C(F)(F)F` (centres undefined), the Ki turned out to be 22.3 nM in data set [1] and 90.6 nM in data set [2].
Consider `COc1ccc(NC(=O)Nc2ccc(OC(CCN(C)C)c3ccccc3)cc2)cc1Cl` (centres undefined), for which the Ki came to 41.1 nM in data set [1] and 11.2 nM in data set [2]. Further, the Papp A→B at 50 µM in data set [5] came to 7.5 ×10⁻⁶ cm/s. Further, the efflux ratio at 50 µM in the data set “in vitro” was 2.2. The molecule further showed a CLH in the data set with Liver microsome of 0.68 mL/min.
Regarding `O=C(Nc1cccnc1)Nc1ccc2ccccc2c1`, the results for the Ki in data set [1] and in data set [2] were over 10000 nM and 6.2 nM, respectively.
For `Cc1ccc(C(=O)Nc2ccc(OC(CCN(C)C)c3ccccc3)cc2)cc1Cl` (centres undefined), the Ki in data set [1] is 34.6 nM; in data set [2], 45.3 nM. Also, in data set [5], the Papp A→B at 50 µM worked out at 19.9 ×10⁻⁶ cm/s. In the data set “in vitro”, the efflux ratio at 50 µM was determined as 0.7. Besides, the CLH with Liver microsome worked out at 0.59 mL/min.
As to `Cn1ccc2cc(NC(=O)Nc3cccnc3)ccc21`, the Ki was over 10000 nM in data set [1] and 124 nM in data set [2].
In the case of `CN(C)CCC(Oc1ccc(NC(=O)Nc2ccc3c(ccn3C)c2)cn1)c1ccccc1` (centres undefined), the inhibition in data set [3] was -5%; in data set [4], 7%.
On to `CN(C)CCC(Oc1cccc(NC(=O)Nc2ccc3c(ccn3C)c2)c1)c1ccccc1` (centres undefined), for which the Ki in data set [1] worked out at 9.4 nM; in data set [2], 652 nM.
As to `CSc1ccc(NC(=O)Nc2ccc(OC(CCN(C)C)c3ccccc3)cc2)cc1C(F)(F)F` (centres undefined), the inhibition in data set [3] is 31%. For the same molecule, the Ki in data set [2] was 3.4 nM.
On to `Cc1ccc(NC(=O)Nc2ccc(OC(CCN(C)C)c3ccccc3)cc2)cc1Cl` (centres undefined), for which the Ki in data set [1] was found to be 61.4 nM; in data set [2], 0.6 nM. Moreover, the CLH in the data set with Liver turned out to be 0.9 mL/min; with Liver microsome it was 0.06 mL/min.
`CN(C)CCC(Oc1ccc(NC(=O)Nc2ccc3ccn(C)c3c2)cn1)c1ccccc1` (centres undefined): the inhibition in data set [3] is 1%; in data set [4], 15%.
Regarding `Cc1ccc(NC(=O)Nc2ccc(OC(CCN(C)C)c3ccccc3)cc2)cc1I` (centres undefined), the Ki in data set [1] stood at 121 nM; in data set [2] it was 2.4 nM.
Regarding `CCn1ccc2cc(NC(=O)Nc3ccc(OC(CCN(C)C)c4ccccc4)cc3)ccc21` (centres undefined), the Ki in data set [1] worked out at 37.9 nM; in data set [2], 10.7 nM.

The values above are taken from ChEMBL document CHEMBL3259720, “Design of novel multiple-acting ligands towards SERT and 5-HT2C receptors” (Bioorg Med Chem Lett, 2014).
